Reference: the supplement of paper PMC10307832

What was measured:
Assay in all cases: relative viability (nuclei count vs DMSO), 5 days (fraction); higher = more cells survive
NCI-H1563 = test system: NCI-H1563
How it was run: (§1)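 A single step with final 0.05% Triton X-100, 1% formaldehyde and 1 ug/ml Hoechst fixed the cells and stained nuclei 5 days after treatment. Lung cancer cell lines in 1536-well plates had been treated by pin tool the day after seeding with one drug alone or a fixed anchor-drug dose plus five library-drug doses (not always all listed) in √10 steps, and nuclei were counted on 4× images. Relative viability is the ratio of nuclei in treated wells to nuclei in vehicle wells, taken as the median of duplicate plates.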

NCI-H1755 = test system: NCI-H1755
How it was run: as §1

NCI-H1792 = test system: NCI-H1792
How it was run: as §1

NCI-H727 = test system: NCI-H727
How it was run: as §1

LCLC-103H = test system: LCLC-103H
How it was run: as §1

NCI-H460 = test system: NCI-H460
How it was run: as §1

NCI-H2347 = test system: NCI-H2347
How it was run: as §1

LXF-289 = test system: LXF-289
How it was run: as §1

NCI-H1355 = test system: NCI-H1355
How it was run: as §1

NCI-H3122 = test system: NCI-H3122
How it was run: as §1

NCI-H1915 = test system: NCI-H1915
How it was run: as §1

NCI-H522 = test system: NCI-H522
How it was run: as §1

NCI-H1651 = test system: NCI-H1651
How it was run: as §1

NCI-H520 = test system: NCI-H520
How it was run: as §1

NCI-H661 = test system: NCI-H661
How it was run: as §1

NCI-H322M = test system: NCI-H322M
How it was run: as §1

RERF-LC-KJ = test system: RERF-LC-KJ
How it was run: as §1

SW 900 = test system: SW 900
How it was run: as §1

PC-14 = test system: PC-14
How it was run: as §1

SK-MES-1 = test system: SK-MES-1
How it was run: as §1

NCI-H441 = test system: NCI-H441
How it was run: as §1

NCI-H596 = test system: NCI-H596
How it was run: as §1

What does the source list for `O=c1cc(-c2cccc3c2Sc2ccccc2S3)oc(N2CCOCC2)c1` + CCNC(=O)c1noc(-c2cc(C(C)C)c(O)cc2O)c1-c1ccc(CN2CCOCC2)cc1 [Luminespib] (partner 0.01 µM)?
relative viability (NCI-H1563; first compound 0.08 µM): 0.708; relative viability (NCI-H1563; first compound 0.253 µM): 0.567; relative viability (NCI-H1563; first compound 0.8 µM): 0.491; relative viability (NCI-H1563; first compound 2.53 µM): 0.491; relative viability (NCI-H1563; first compound 8 µM): 0.497; relative viability (NCI-H1755; first compound 0.08 µM): 0.425; relative viability (NCI-H1755; first compound 0.253 µM): 0.614; relative viability (NCI-H1755; first compound 0.8 µM): 0.378; relative viability (NCI-H1755; first compound 2.53 µM): 0.641; relative viability (NCI-H1755; first compound 8 µM): 0.5; relative viability (NCI-H1792; first compound 0.08 µM): 0.362; relative viability (NCI-H1792; first compound 0.253 µM): 0.686; relative viability (NCI-H1792; first compound 0.8 µM): 0.329; relative viability (NCI-H1792; first compound 2.53 µM): 0.424; relative viability (NCI-H1792; first compound 8 µM): 0.328; relative viability (NCI-H727; first compound 0.08 µM): 0.289; relative viability (NCI-H727; first compound 0.253 µM): 0.449; relative viability (NCI-H727; first compound 0.8 µM): 0.307; relative viability (NCI-H727; first compound 2.53 µM): 0.536; relative viability (NCI-H727; first compound 8 µM): 0.382; relative viability (LCLC-103H; first compound 0.08 µM): 0.878; relative viability (LCLC-103H; first compound 0.253 µM): 1.17; relative viability (LCLC-103H; first compound 0.8 µM): 1.05; relative viability (LCLC-103H; first compound 2.53 µM): 0.959; relative viability (LCLC-103H; first compound 8 µM): 0.792; relative viability (NCI-H460; first compound 0.08 µM): 0.0288; relative viability (NCI-H460; first compound 0.253 µM): 0.0357; relative viability (NCI-H460; first compound 0.8 µM): 0.0367; relative viability (NCI-H460; first compound 2.53 µM): 0.0306; relative viability (NCI-H460; first compound 8 µM): 0.0332; relative viability (NCI-H2347; first compound 0.08 µM): 0.529; relative viability (NCI-H2347; first compound 0.253 µM): 0.358; relative viability (NCI-H2347; first compound 0.8 µM): 0.284; relative viability (NCI-H2347; first compound 2.53 µM): 0.461; relative viability (NCI-H2347; first compound 8 µM): 0.391; relative viability (LXF-289; first compound 0.08 µM): 0.607; relative viability (LXF-289; first compound 0.253 µM): 0.764; relative viability (LXF-289; first compound 0.8 µM): 0.636; relative viability (LXF-289; first compound 2.53 µM): 0.69; relative viability (LXF-289; first compound 8 µM): 0.765; relative viability (NCI-H1355; first compound 0.08 µM): 0.847; relative viability (NCI-H1355; first compound 0.253 µM): 0.641; relative viability (NCI-H1355; first compound 0.8 µM): 0.722; relative viability (NCI-H1355; first compound 2.53 µM): 0.73; relative viability (NCI-H1355; first compound 8 µM): 0.605; relative viability (NCI-H3122; first compound 0.08 µM): 0.109; relative viability (NCI-H3122; first compound 0.253 µM): 0.102; relative viability (NCI-H3122; first compound 0.8 µM): 0.111; relative viability (NCI-H3122; first compound 2.53 µM): 0.0685; relative viability (NCI-H3122; first compound 8 µM): 0.106; relative viability (NCI-H1915; first compound 0.08 µM): 0.968; relative viability (NCI-H1915; first compound 0.253 µM): 0.827; relative viability (NCI-H1915; first compound 0.8 µM): 0.911; relative viability (NCI-H1915; first compound 2.53 µM): 0.775; relative viability (NCI-H1915; first compound 8 µM): 0.769; relative viability (NCI-H522; first compound 0.08 µM): 0.999; relative viability (NCI-H522; first compound 0.253 µM): 1.03; relative viability (NCI-H522; first compound 0.8 µM): 1.21; relative viability (NCI-H522; first compound 2.53 µM): 1.13; relative viability (NCI-H522; first compound 8 µM): 1.08; relative viability (NCI-H1651; first compound 0.08 µM): 0.81; relative viability (NCI-H1651; first compound 0.253 µM): 0.93; relative viability (NCI-H1651; first compound 0.8 µM): 0.889; relative viability (NCI-H1651; first compound 2.53 µM): 0.807; relative viability (NCI-H1651; first compound 8 µM): 0.791; relative viability (NCI-H520; first compound 0.08 µM): 0.223; relative viability (NCI-H520; first compound 0.253 µM): 0.231; relative viability (NCI-H520; first compound 0.8 µM): 0.215; relative viability (NCI-H520; first compound 2.53 µM): 0.205; relative viability (NCI-H520; first compound 8 µM): 0.231; relative viability (NCI-H661; first compound 0.08 µM): 0.914; relative viability (NCI-H661; first compound 0.253 µM): 0.939; relative viability (NCI-H661; first compound 0.8 µM): 0.893; relative viability (NCI-H661; first compound 2.53 µM): 0.897; relative viability (NCI-H661; first compound 8 µM): 0.891; relative viability (NCI-H322M; first compound 0.08 µM): 0.711; relative viability (NCI-H322M; first compound 0.253 µM): 0.824; relative viability (NCI-H322M; first compound 0.8 µM): 0.823; relative viability (NCI-H322M; first compound 2.53 µM): 0.769; relative viability (NCI-H322M; first compound 8 µM): 0.849; relative viability (RERF-LC-KJ; first compound 0.08 µM): 1.06; relative viability (RERF-LC-KJ; first compound 0.253 µM): 1.56; relative viability (RERF-LC-KJ; first compound 0.8 µM): 1.24; relative viability (RERF-LC-KJ; first compound 2.53 µM): 1.35; relative viability (RERF-LC-KJ; first compound 8 µM): 1.42; relative viability (SW 900; first compound 0.08 µM): 0.198; relative viability (SW 900; first compound 0.253 µM): 0.187; relative viability (SW 900; first compound 0.8 µM): 0.166; relative viability (SW 900; first compound 2.53 µM): 0.149; relative viability (SW 900; first compound 8 µM): 0.15; relative viability (PC-14; first compound 0.08 µM): 0.155; relative viability (PC-14; first compound 0.253 µM): 0.15; relative viability (PC-14; first compound 0.8 µM): 0.165; relative viability (PC-14; first compound 2.53 µM): 0.168; relative viability (PC-14; first compound 8 µM): 0.155; relative viability (SK-MES-1; first compound 0.08 µM): 0.775; relative viability (SK-MES-1; first compound 0.253 µM): 0.748; relative viability (SK-MES-1; first compound 0.8 µM): 0.734; relative viability (SK-MES-1; first compound 2.53 µM): 0.522; relative viability (SK-MES-1; first compound 8 µM): 0.505; relative viability (NCI-H441; first compound 0.08 µM): 0.331; relative viability (NCI-H441; first compound 0.253 µM): 0.314; relative viability (NCI-H441; first compound 0.8 µM): 0.35; relative viability (NCI-H441; first compound 2.53 µM): 0.407; relative viability (NCI-H441; first compound 8 µM): 0.281; relative viability (NCI-H596; first compound 0.08 µM): 1.06; relative viability (NCI-H596; first compound 0.253 µM): 0.957; relative viability (NCI-H596; first compound 0.8 µM): 0.763; relative viability (NCI-H596; first compound 2.53 µM): 0.891; relative viability (NCI-H596; first compound 8 µM): 0.852
